# From US6313111A, “Substituted 6H-1,3,4-thiadiazine-2-amines, the use thereof as anaesthetising, cardiovascular and hypometabolic agents, and pharmaceutical composition containing them” (priority 1998, dated 2001)
# Values joined by “and” are separate entries in the source; they are usually repeats but may differ in a detail not shown here. Equal entries are not always repeated. Structures can show the parent of a compound that is named as a salt.
# Assay: rectal (body) temperature of mice measured with medicinal electrothermometer TREM-1
# Format: in vivo, mice of the BALB line
# Details: for body temperature: i.p.
# Protocol: In all cases tests were carried out on mice of the BALB line of 3-4 month age. […] In the case of water-soluble compounds, aqueous solutions of the test compounds were injected intraperitoneally (i.p.), while water-insoluble compounds were introduced orally (p.o.).
# Rectal temperature changes (absolute magnitues in ° C.) were measured using a medicinal electrothermometer TREM-1 (Table 1). The rate of oxygen consumption was monitored by measuring concentration of oxygen in a closed testing unit with optic-acoustic gas analyser MN 5130. The data on oxygen consumption are given in percents relative to the starting content of oxygen taken as 100%. (Table 2).
# Rectal temperature of mice was followed in dynamics after 5, 15, 30, 60, 120, 180, 240, 300, and 360 minutes (Table 3). […] The same decrease in temperature at 190 mg/kg dosage was reached after 15 minutes; in 1.5 hours it reached 22-25° C. and maintained this level over the next 5 hours, that is 13-17° C. below the initial value. After one day, body temperature was restored to the value of 94-96% of initial.
compound,measurement,setting,value
"c1ccc(C2=NN=C(N3CCOCC3)SC2)cc1 [Compound 1, 2-Morpholino-5-phenyl-6H-1,3,4-thiadiazine, hydrobromide]",body temperature (T),"10.0 mg/kg i.p., 0 min",37.5 ± 0.2 °C
same,body temperature (T),"10.0 mg/kg i.p., 10 min",37.8 ± 0.1 °C
same,body temperature (T),"10.0 mg/kg i.p., 20 min",37.4 ± 0.2 °C
same,body temperature (T),"10.0 mg/kg i.p., 30 min",37.3 °C
same,body temperature (T),"10.0 mg/kg i.p., 40 min",37.5 ± 0.1 °C
same,body temperature (T),"10.0 mg/kg i.p., 60 min",37.5 ± 0.1 °C
same,body temperature (T),"10.0 mg/kg i.p., 90 min",37.4 ± 0.2 °C
same,body temperature (T),"10.0 mg/kg i.p., 120 min",36.9 ± 0.1 °C
same,body temperature (T),"10.0 mg/kg i.p., 180 min",36.9 ± 0.2 °C
same,body temperature (T),"10.0 mg/kg i.p., 210 min",36.4 °C
same,body temperature (T),"10.0 mg/kg i.p., 240 min",36.7 ± 0.2 °C
same,body temperature (T),"10.0 mg/kg i.p., 270 min",36.7 ± 0.2 °C
same,body temperature (T),"10.0 mg/kg i.p., 300 min",36.9 ± 0.1 °C
same,body temperature (T),"10.0 mg/kg i.p., 330 min",36.8 ± 0.2 °C
same,body temperature (T),"10.0 mg/kg i.p., 390 min",36.7 ± 0.2 °C
same,body temperature (T),"35.0 mg/kg i.p., 0 min",37.7 ± 0.2 °C
same,body temperature (T),"35.0 mg/kg i.p., 10 min",37.2 ± 0.2 °C
same,body temperature (T),"35.0 mg/kg i.p., 20 min",36.6 ± 0.4 °C
same,body temperature (T),"35.0 mg/kg i.p., 30 min",35.9 °C
same,body temperature (T),"35.0 mg/kg i.p., 40 min",36.6 ± 0.1 °C
same,body temperature (T),"35.0 mg/kg i.p., 60 min",37.0 ± 0.3 °C
same,body temperature (T),"35.0 mg/kg i.p., 90 min",37.3 ± 0.1 °C
same,body temperature (T),"35.0 mg/kg i.p., 120 min",37.1 ± 0.3 °C
same,body temperature (T),"35.0 mg/kg i.p., 180 min",36.9 ± 0.2 °C
same,body temperature (T),"35.0 mg/kg i.p., 210 min",36.6 ± 0.1 °C
same,body temperature (T),"35.0 mg/kg i.p., 240 min",36.9 ± 0.4 °C
same,body temperature (T),"35.0 mg/kg i.p., 270 min",36.8 ± 0.1 °C
same,body temperature (T),"35.0 mg/kg i.p., 300 min",36.9 ± 0.1 °C
same,body temperature (T),"35.0 mg/kg i.p., 330 min",37.2 ± 0.2 °C
same,body temperature (T),"35.0 mg/kg i.p., 390 min",37.1 ± 0.1 °C
same,body temperature (T),"70.0 mg/kg i.p., 0 min",37.5 ± 0.2 °C
same,body temperature (T),"70.0 mg/kg i.p., 10 min",36.2 ± 0.3 °C
same,body temperature (T),"70.0 mg/kg i.p., 20 min",35.4 ± 0.5 °C
same,body temperature (T),"70.0 mg/kg i.p., 30 min",34.5 °C
same,body temperature (T),"70.0 mg/kg i.p., 40 min",35.0 ± 0.9 °C
same,body temperature (T),"70.0 mg/kg i.p., 60 min",35.6 ± 0.6 °C
same,body temperature (T),"70.0 mg/kg i.p., 90 min",36.1 ± 0.2 °C
same,body temperature (T),"70.0 mg/kg i.p., 120 min",37.0 ± 0.2 °C
same,body temperature (T),"70.0 mg/kg i.p., 180 min",36.7 ± 0.6 °C
same,body temperature (T),"70.0 mg/kg i.p., 210 min",36.9 °C
same,body temperature (T),"70.0 mg/kg i.p., 240 min",37.0 ± 0.1 °C
same,body temperature (T),"70.0 mg/kg i.p., 270 min",36.6 ± 0.2 °C
same,body temperature (T),"70.0 mg/kg i.p., 300 min",37.0 ± 0.1 °C
same,body temperature (T),"70.0 mg/kg i.p., 330 min",37.2 ± 0.1 °C
same,body temperature (T),"70.0 mg/kg i.p., 390 min",37.1 ± 0.1 °C
same,time of maximum drop of body temperature,140 mg/kg i.p.,40 to 60 min
same,body temperature (T),"140.0 mg/kg i.p., 0 min",37.9 ± 0.1 °C
same,body temperature (T),"140.0 mg/kg i.p., 10 min",34.5 ± 0.2 °C
same,body temperature (T),"140.0 mg/kg i.p., 20 min",32.6 ± 0.4 °C
same,body temperature (T),"140.0 mg/kg i.p., 30 min",30.8 °C
same,body temperature (T),"140.0 mg/kg i.p., 40 min",30.2 ± 0.1 °C
same,body temperature (T),"140.0 mg/kg i.p., 60 min",30.0 ± 0.1 °C
same,body temperature (T),"140.0 mg/kg i.p., 90 min",31.5 ± 0.9 °C
same,body temperature (T),"140.0 mg/kg i.p., 120 min",33.6 ± 0.7 °C
same,body temperature (T),"140.0 mg/kg i.p., 180 min",35.2 ± 0.5 °C
same,body temperature (T),"140.0 mg/kg i.p., 210 min",36.1 °C
same,body temperature (T),"140.0 mg/kg i.p., 240 min",36.5 ± 0.2 °C
same,body temperature (T),"140.0 mg/kg i.p., 270 min",36.6 ± 0.2 °C
same,body temperature (T),"140.0 mg/kg i.p., 300 min",36.9 ± 0.1 °C
same,body temperature (T),"140.0 mg/kg i.p., 330 min",37.6 ± 0.2 °C
same,body temperature (T),"140.0 mg/kg i.p., 390 min",37.2 ± 0.2 °C
same,maximum drop of body temperature,"140 mg/kg i.p., after 40-60 minutes",7-8 °C
same,body temperature (T),"190 mg/kg (1/2 LD16) i.p., 5 min",34.9 ± 0.0 °C
same,body temperature (T),"190 mg/kg (1/2 LD16) i.p., 15 min",30.8 ± 0.2 °C
same,time to reach the same decrease in temperature (7-8° C.),190 mg/kg i.p.,15 min
same,body temperature (T),"190.0 mg/kg i.p., 0 min",39.2 ± 0.1 °C
same,body temperature (T),"190.0 mg/kg i.p., 10 min",34.9 ± 0.0 °C
same,body temperature (T),"190.0 mg/kg i.p., 20 min",30.8 ± 0.2 °C
same,body temperature (T),"190.0 mg/kg i.p., 30 min, hydrobromide",26.9 ± 0.4 °C and 26.9 °C
same,body temperature (T),"190.0 mg/kg i.p., 40 min",25.9 ± 0.3 °C
same,body temperature (T),"190.0 mg/kg i.p., 60 min",23.5 ± 0.2 °C
same,body temperature (T),"190.0 mg/kg i.p., 90 min",21.4 ± 0.2 °C
same,body temperature (T),"190.0 mg/kg i.p., 120 min",23.0 ± 0.8 °C
same,body temperature (T),"190.0 mg/kg i.p., 180 min",20.9 ± 0.1 °C
same,body temperature (T),"190.0 mg/kg i.p., 210 min",21.4 °C
same,body temperature (T),"190.0 mg/kg i.p., 240 min",21.1 ± 0.1 °C
same,body temperature (T),"190.0 mg/kg i.p., 270 min",20.8 ± 0.3 °C
same,body temperature (T),"190.0 mg/kg i.p., 300 min, hydrobromide",20.2 ± 0.0 °C and 20.2 ± 0.2 °C
same,body temperature (T),"190.0 mg/kg i.p., 330 min",19.8 ± 0.2 °C
same,body temperature (T),"190.0 mg/kg i.p., 390 min",19.8 ± 0.2 °C
same,body temperature (T),"190.0 mg/kg i.p., 1140 min",36.9 °C
same,body temperature (T),"190.0 mg/kg i.p., 1620 min",37.9 ± 0.4 °C
same,body temperature (T),"190.0 mg/kg i.p., 1980 min",36.9 ± 0.3 °C
same,time over which the temperature level was maintained,"190 mg/kg i.p., after reaching 22-25° C. in 1.5 hours",5 h
same,body temperature below the initial value,"190 mg/kg i.p., from 1.5 hours over the next 5 hours",13-17 °C
same,body temperature level reached,"190 mg/kg i.p., in 1.5 hours",22-25 °C
same,body temperature (T),"279.0 mg/kg i.p., 0 min",38.9 ± 0.6 °C
same,body temperature (T),"279.0 mg/kg i.p., 10 min",35.8 ± 0.1 °C
same,body temperature (T),"279.0 mg/kg i.p., 20 min",30.2 ± 0.1 °C
same,body temperature (T),"279.0 mg/kg i.p., 30 min",27.1 °C
same,body temperature (T),"279.0 mg/kg i.p., 40 min",24.7 ± 0.2 °C
same,body temperature (T),"279.0 mg/kg i.p., 60 min",21.0 ± 0.1 °C
same,body temperature (T),"279.0 mg/kg i.p., 90 min",20.0 ± 0.1 °C
same,body temperature (T),"279.0 mg/kg i.p., 120 min",21.0 ± 0.3 °C
same,body temperature (T),"279.0 mg/kg i.p., 180 min",21.2 ± 0.2 °C
same,body temperature (T),"279.0 mg/kg i.p., 210 min",21.2 °C
same,body temperature (T),"279.0 mg/kg i.p., 240 min",20.8 ± 0.1 °C
same,body temperature (T),"279.0 mg/kg i.p., 270 min",21.5 ± 0.1 °C
same,body temperature (T),"279.0 mg/kg i.p., 300 min",21.3 ± 0.3 °C
same,body temperature (T),"279.0 mg/kg i.p., 330 min",22.5 ± 0.3 °C
same,body temperature (T),"279.0 mg/kg i.p., 390 min",19.4 ± 0.3 °C
same,body temperature (T),"279.0 mg/kg i.p., 1140 min",20.8 °C
same,body temperature (T),"279.0 mg/kg i.p., 1620 min",22.6 ± 0.9 °C
same,body temperature (T),"279.0 mg/kg i.p., 1980 min",21.2 ± 0.3 °C
same,body temperature (T),"365.0 mg/kg i.p., 0 min",39.6 ± 0.1 °C
same,body temperature (T),"365.0 mg/kg i.p., 10 min",35.4 ± 0.2 °C
same,body temperature (T),"365.0 mg/kg i.p., 20 min",30.1 ± 0.2 °C
same,body temperature (T),"365.0 mg/kg i.p., 30 min",27.2 °C
same,body temperature (T),"365.0 mg/kg i.p., 40 min",25.5 ± 0.2 °C
same,body temperature (T),"365.0 mg/kg i.p., 60 min",23.3 ± 0.3 °C
same,body temperature (T),"365.0 mg/kg i.p., 90 min",21.5 ± 0.2 °C
same,body temperature (T),"365.0 mg/kg i.p., 120 min",20.9 ± 0.2 °C
same,body temperature (T),"365.0 mg/kg i.p., 180 min",21.4 ± 0.1 °C
same,body temperature (T),"365.0 mg/kg i.p., 210 min",21.2 °C
same,body temperature (T),"365.0 mg/kg i.p., 240 min",21.1 ± 0.0 °C
same,body temperature (T),"365.0 mg/kg i.p., 270 min",21.4 ± 0.7 °C
same,"body temperature restored, % of initial","after one day, 190 mg/kg i.p.",94-96%
same,body temperature (T),"dose 36.5 mg/kg (1.06 mM/kg) i.p., 300 min",22.1 ± 0.0 °C
same,body temperature (T),"dose 36.5 mg/kg (1.06 mM/kg) i.p., 330 min",21.5 ± 0.1 °C
same,body temperature (T),"dose 36.5 mg/kg (1.06 mM/kg) i.p., 390 min",20.0 ± 0.2 °C
same,body temperature (T),"dose 36.5 mg/kg (1.06 mM/kg) i.p., 1140 min",20.8 °C
same,body temperature (T),"dose 36.5 mg/kg (1.06 mM/kg) i.p., 1620 min",21.6 ± 0.1 °C
same,body temperature (T),"dose 36.5 mg/kg (1.06 mM/kg) i.p., 1980 min",22.1 ± 0.2 °C
same,body temperature,"0 min, mg/kg: cpd 1 190.0, cpd 2 178.0, cpd 5 190.0, cpd 6 160.0",39.2 °C
same,body temperature,"30 min, mg/kg: cpd 1 190.0, cpd 2 178.0, cpd 5 190.0, cpd 6 160.0",26.9 °C
same,body temperature,"60 min, mg/kg: cpd 1 190.0, cpd 2 178.0, cpd 5 190.0, cpd 6 160.0",23.5 °C
same,body temperature,"90 min, mg/kg: cpd 1 190.0, cpd 2 178.0, cpd 6 160.0",21.4 °C
same,body temperature,"120 min, mg/kg: cpd 1 190.0, cpd 2 178.0, cpd 5 190.0, cpd 6 160.0",23.0 °C
same,body temperature,"180 min, mg/kg: cpd 1 190.0, cpd 2 178.0, cpd 5 190.0, cpd 6 160.0",20.9 °C
same,body temperature,"240 min, mg/kg: cpd 1 190.0, cpd 2 178.0, cpd 5 190.0, cpd 6 160.0",21.1 °C
same,body temperature,"300 min, mg/kg: cpd 1 190.0, cpd 2 178.0, cpd 6 160.0",20.2 °C
